# Reference: PMC9230671, “Fluorochrome Selection for Imaging Intraoperative Ovarian Cancer Probes” (Pharmaceuticals, 2022)
# Marks after values point to notes of the source that are not given here.
# Columns and labels:
# COX-2 = target: T1, COX-2 (Homo sapiens, UniProt P35354); experiment: COX-2 inhibition, COX (ovine/human) inhibitor screening assay kit; assay type: biochemical; conditions: for COX-2 inhibitory activity (in words): up to 50 µM final concentration
# T1 construct: purchased Cayman Chemicals (bought through Sigma-Aldrich) 560131
# T1 sequence (P35354 18-604): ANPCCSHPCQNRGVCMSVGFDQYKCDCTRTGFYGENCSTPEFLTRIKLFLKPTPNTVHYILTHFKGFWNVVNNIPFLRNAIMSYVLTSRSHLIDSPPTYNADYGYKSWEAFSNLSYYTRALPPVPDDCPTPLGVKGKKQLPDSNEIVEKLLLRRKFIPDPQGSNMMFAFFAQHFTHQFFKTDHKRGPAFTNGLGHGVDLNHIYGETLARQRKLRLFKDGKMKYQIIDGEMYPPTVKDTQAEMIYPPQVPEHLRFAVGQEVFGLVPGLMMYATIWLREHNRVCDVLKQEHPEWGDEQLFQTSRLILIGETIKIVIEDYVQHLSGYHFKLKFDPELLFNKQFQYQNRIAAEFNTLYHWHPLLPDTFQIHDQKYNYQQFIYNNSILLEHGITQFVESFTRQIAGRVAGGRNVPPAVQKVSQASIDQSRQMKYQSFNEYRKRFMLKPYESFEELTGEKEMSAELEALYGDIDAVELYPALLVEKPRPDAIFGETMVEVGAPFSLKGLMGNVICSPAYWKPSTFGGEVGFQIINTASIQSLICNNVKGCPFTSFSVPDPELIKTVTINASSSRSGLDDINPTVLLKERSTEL
# Description: Cell culture reagents were purchased from Euroclone (Milan, Italy). COX (ovine/human) inhibitor screening assay kit (Catalog No. 560131, Cayman Chemicals, Ann Arbor, MI, USA) was purchased from Sigma-Aldrich, Burlington, MA, USA. […] The other reagents were purchased from Sigma-Aldrich, Burlington, MA, USA.
# The COX-1/2 inhibition screening experiments were carried out according to the manufacturer’s instructions. The plate was incubated for 60 min at r.t. under shaking and read with the Tecan Infinite 200 Microplate Reader at λ = 405 nm.
# The graph between percent inhibition of the enzyme and corresponding concentration of the compound provided IC50 values for the probe compounds.
# [1] = Fluorescence property measurements (absorption/emission spectra); assay type: physicochemical; parameters: Stokes Shift: unit not given here
# Description: The λabs and λem, of the target compounds were measured in aqueous solution (phosphate-buffered saline solution, PBS) at the concentration of 10^−5 M (Table 1).
# Fluorescence spectra of all target compounds were determined in PBS and EtOH solutions (Table 1) with a Tecan Infinite 200 Microplate Reader. In all experiments, the excitation and the emission bandpass were set at λ = 5 nm. The emission spectra were obtained from λ = 280 to 850 nm, with excitation set at the appropriate excitation wavelength. Absorption spectra were recorded with a Shimadzu UV-1800 spectrophotometer.
# OVCAR-3 xenograft tumors = experiment: NIR fluorescence imaging / biodistribution in OVCAR-3 s.c. xenograft models; assay type: in vivo, NSG mice; conditions: for tumor-to-background ratio (TBR): OVCAR-3 s.c. NSG mice, 100 µL of 500 µM i.v., after 24 h; for clearance pattern (organ): ex vivo NIR FLI 6 h after 500 µM i.v., OVCAR-3 mice
# Description: To assess the capacity of both conjugates to visualize ovarian xenograft tumors “in vivo” and evaluate accumulation and clearance behavior of the conjugates, kinetic imaging was performed at six different time-points. Subcutaneously engrafted OVCAR-3 NSG mice were injected with 100 µL of 500 µM RR11 or 23 (MSA14) intravenously into the tail vein (Figure 3). […] Tumor-specific fluorescence was obtained 4, 6, and 24 h after RR11 injection, with a mean tumor-to-background ratio (TBR) of 1.74 after 24 h. In OVCAR-3 bearing NSG mice (n = 3), injected with 23 (MSA14), high liver signals (ventral view, #) were obtained at all time points with high compound accumulation in the tumors at 24 h (*, Figure 3B). The best TBR of 1.44 was achieved after 24 h. Residual background fluorescence was predominantly observed in the spine and limbs as well as in the excretion organs.
# Following the biodistribution over time “in vivo”, we assessed the accumulation of the compounds “ex vivo” at 6 h. In Figure 4A, RR11-induced tumor-specific signal, along with high fluorescence in kidneys, gallbladder, stomach, and lungs, can be observed. […] The higher gastrointestinal fluorescence signal in RR11-imaged mice can derive from auto-fluorescent alfalfa containing diet, which is acquired in the lower wavelength of RR11. The main differences between the accumulation and clearance behavior are marked with an arrow, indicating two different clearance patterns of the compounds through liver (23, MSA14) and kidney (RR11). Finally, the fluorescence of 23 (MSA14) was evaluated in a clinically compatible intraoperative setting using the FLARE® system to assess the suitability of the COX-1 targeted NIR compound for FIGS and its potential clinical translation (Figure 4B). The “in vivo” and “ex vivo” intraoperative images confirm the results from Figure 3B and Figure 4A. […] While the tumor fluorescence intensities were higher than those of kidneys, the fluorescence intensities in the gallbladder and lungs were the highest.
# Female NOD-scid IL2rγ^null (NSG) mice, aged 6 to 25 weeks were maintained under defined floral conditions and no more than five mice were housed in individually ventilated (HEPA-filtered air) cages, kept on a 12 h dark/night schedule at a constant temperature of 21 °C and at 50% relative humidity at the University of Bergen’s animal facility. Observations of body weight and general condition including activity levels, appearance, and food intake were monitored twice weekly, and humane endpoints were defined with the use of score sheets. When indicated, animals were euthanized according to institutional guidelines. […]
# [2] = ethanol (10^−4 M), two bands, listed as 23
compound,measurement,setting,value
"CCN1/C(=C/C=C/C=C/C=C/C2=[N+](CCCCCC(=O)NCCCCNC(=O)Cc3onc(-c4ccc(OC)cc4)c3-c3ccc(OC)cc3)c3ccc4ccccc4c3C2(C)C)C(C)(C)c2c1ccc1ccccc21 [23 (MSA14), 3-(6-(4-(2-(3,4-Bis(4-methoxyphenyl)isoxazole-5-yl)acetamido)butyl)amino-6-oxohexyl)-2-[7-(1,3-dihydro-1,1-dimethyl-3-ethyl-2H-benz[e]indolin-2-yl-idene)-1,3,5-heptatrienyl]-1,1-dimethyl-3-(6-carboxilato-hexyl)-1H-benz[e]indolium chloride]",IC50,COX-2,> 50000 nM
same,COX-2 inhibitory activity (in words),COX-2,did not inhibit
same,COX-2 inhibitory activity (in words),COX-2; listed as 23,almost inactive
same,λabs,[1]; [2],770 nm
same,λem,[1]; [2],822 nm
same,tumor-to-background ratio (TBR),OVCAR-3 xenograft tumors,1.44
same,clearance pattern (organ),OVCAR-3 xenograft tumors,liver
"COc1ccc(-c2noc(CC(=O)NCCCCNc3cc4[o+]c5cc(N(C)C)ccc5nc4c4ccccc34)c2-c2ccc(OC)cc2)cc1.[Cl-] [RR11, N-[4-(9-dimethylimino-9H-benzo[a]phenoxazin-5-ylamino)butyl]-2-(3,4-bis(4-methoxyphenyl)isoxazol-5-yl)acetamide chloride, reference compound]",IC50,COX-2,2400 nM
same,COX-2 % inhib.,COX-2; at 50 µM compound final concentration,64%
same,Stokes Shift,[1]; ethanol (10^−5 M),62
same,λabs,[1]; ethanol (10^−5 M),610 ^b nm
same,λem,[1]; ethanol (10^−5 M),672 ^b nm
same,tumor-to-background ratio (TBR),OVCAR-3 xenograft tumors,1.74
same,clearance pattern (organ),OVCAR-3 xenograft tumors,kidney
